# Assay results published in patent publication US5723616A, “Process for the preparation of a growth hormone secretagogue” (priority 1996, dated 1998).
# Where two headings read alike, the source gives them in different places.
# Assays:
# [1] = solubility of the sulfonamide in various mixtures of toluene and n-PrOH, determined by HPLC assay; format: physicochemical; conditions: organic solvent or mixture, read-out: solubility of 1
# Experimental: The temperature of both the head and pot rose from 94° C. to 98° C. during the solvent switch. Toluene and n-PrOH form an azeotrope boiling at 97.2° C. composed of 47.5% toluene and 52.5% n-PrOH. The mixture was allowed to cool gradually to 20° C. over 3h and aged for 12 h. […] The solubility of the sulfonamide in various mixtures of toluene and n-PrOH has been determined by HPLC assay: […]
# [2] = hygroscopicity observed at filtration of the wet crystals; format: physicochemical; conditions: wet crystals during filtration (N2 essential)
# Experimental: The volume of the solution of 15 from the previous step was adjusted to 60 L with ethyl acetate and EtOH (4.8 L) was added. The MsOH (316 mL) was added in 3 L of EtOAc at 45° C. To the deep red homogeneous solution was added 496 g of the title compound Form I seed (10% seed based on the weight of the free amine was employed). The temperature rose to ca. 48° C. and the reaction was aged at 52° C. for 1.5 hours. Analysis indicated complete conversion to the title compound (Form I). (At less than 10% seed longer age (>3 hours) was required). The slurry was allowed to cool to 20° C. overnight and was filtered in a centrifuge under N2. The cake was washed with 20 L of 8% EtOH in EtOAc. […] The batch was dried at 35° C. under vacuum to afford 2.7 Kg (56% overall yield) of the title compound (Form I) (99.9 A % purity; <0.1% enantiomer).
solubility ([1]; 5% toluene in n-proh),solubility ([1]; 10% toluene in n-proh),solubility ([1]; 20% toluene in n-proh),solubility ([1]; 25% toluene in n-proh),solubility ([1]; 0% toluene in n-PrOH),hygroscopicity of the wet crystals [2],Compound
3020 µg/mL,4230 µg/mL,7510 µg/mL,10300 µg/mL,2360 µg/mL,–,"CS(=O)(=O)N1CC2(CCN(C(=O)OCc3ccccc3)CC2)c2ccccc21 [Compound 1, CBZ-Spiroindoline-methanesulfonamide]"
–,–,–,–,–,very hygroscopic,"CC(C)(N)C(=O)N[C@H](COCc1ccccc1)C(=O)N1CCC2(CC1)CN(S(C)(=O)=O)c1ccccc12 [Form I, N-[1(R)-[(1,2-dihydro-1-methanesulfonyl-spiro[3H-indole-3,4'-piperdin]-1'-yl)carbonyl]-2-(phenylmethyl-oxy)ethyl]-2-amino-2-methylpropanamide methanesulfonate]"
